Data as given in PubChem BioAssay AID256 (DTP/NCI, 2004).
“And” between values parts separate entries of the source, which are not always exact repeats. Equal values may be shown once. Toxic doses and inconclusive results are not listed.

Tested on: CD2F1 mice, L1210 leukemia ip, survival T/C
Test: NCI In Vivo Anticancer Drug Screen. Data for tumor model L1210 Leukemia (intraperitoneal) in CD2F1 (CDF1) mice
Settings: higher = longer survival
Procedure, shortened: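 In this screen, transplantable tumors were grown in mice given either the compound or its vehicle. Results were expressed as the treated measurement relative to the control measurement.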

SMILES: COc1cccc2c1C(=O)c1c(O)c3c(c(O)c1C2=O)C[C@@](O)(C(=O)CO)C[C@@H]3OC1CC(N)C(O)C(C)O1 (stereo partly drawn)
- T/C (endpoint: mean survival time, dose: 8.0 mg/kg/injection, schedule: Q04DX003 (ip), vehicle: water): 116 % of control
- T/C (endpoint: mean survival time, dose: 10.0 mg/kg/injection, schedule: Q01DX001 (ip), vehicle: water): 169 % of control and 176 % of control
- T/C (endpoint: mean survival time, dose: 10.0 mg/kg/injection, schedule: Q04DX003 (ip), vehicle: water): 89 % of control
- T/C (endpoint: mean survival time, dose: 12.96 mg/kg/injection, schedule: Q01DX001 (ip), vehicle: water): 161 % of control
- T/C (endpoint: mean survival time, dose: 13.33 mg/kg/injection, schedule: Q01DX001 (ip), vehicle: water): 104 % of control
- T/C (endpoint: mean survival time, dose: 15.0 mg/kg/injection, schedule: Q01DX001 (ip), vehicle: saline): 196 % of control and 201 % of control
- T/C (endpoint: mean survival time, dose: 18.0 mg/kg/injection, schedule: Q01DX001 (ip), vehicle: saline): 121 % of control
- T/C (endpoint: mean survival time, dose: 20.0 mg/kg/injection, schedule: Q01DX001 (ip), vehicle: saline): 225 % of control
- T/C (endpoint: mean survival time, dose: 20.0 mg/kg/injection, schedule: Q01DX001 (ip), vehicle: water): 121 % of control and 263 % of control
- T/C (endpoint: mean survival time, dose: 22.23 mg/kg/injection, schedule: Q01DX001 (ip), vehicle: water): 119 % of control
- T/C (endpoint: mean survival time, dose: 40.0 mg/kg/injection, schedule: Q01DX001 (ip), vehicle: water): 100 % of control
- T/C (endpoint: mean survival time, dose: 20.0 micrograms/kg/injection, schedule: Q01DX005 (ip), vehicle: saline): 100 % of control
- T/C (endpoint: mean survival time, dose: 40.0 micrograms/kg/injection, schedule: Q01DX005 (ip), vehicle: saline): 117 % of control
- T/C (endpoint: median survival time, dose: 0.5 mg/kg/injection, schedule: Q01DX009 (ip), vehicle: saline): 170 % of control
- T/C (endpoint: median survival time, dose: 1.0 mg/kg/injection, schedule: Q01DX005 (ip), vehicle: water): 150 % of control
- T/C (endpoint: median survival time, dose: 2.0 mg/kg/injection, schedule: Q01DX005 (ip), vehicle: water): 162 % of control
- T/C (endpoint: median survival time, dose: 2.0 mg/kg/injection, schedule: Q04DX003 (ip), vehicle: water): 163 % of control
- T/C (endpoint: median survival time, dose: 2.16 mg/kg/injection, schedule: Q04DX003 (ip), vehicle: saline): 115 % of control
- T/C (endpoint: median survival time, dose: 3.6 mg/kg/injection, schedule: Q01DX001 (ip), vehicle: saline): 151 % of control
- T/C (endpoint: median survival time, dose: 3.6 mg/kg/injection, schedule: Q04DX003 (ip), vehicle: saline): 113 % of control
- T/C (endpoint: median survival time, dose: 4.0 mg/kg/injection, schedule: Q04DX003 (ip), vehicle: saline): 157 % of control
- T/C (endpoint: median survival time, dose: 4.0 mg/kg/injection, schedule: Q04DX003 (ip), vehicle: water): 339 % of control
- T/C (endpoint: median survival time, dose: 4.8 mg/kg/injection, schedule: Q01DX001 (ip), vehicle: saline): 103 % of control
- T/C (endpoint: median survival time, dose: 5.0 mg/kg/injection, schedule: Q01DX001 (ip), vehicle: saline): 150 % of control and 155 % of control
- T/C (endpoint: median survival time, dose: 6.0 mg/kg/injection, schedule: Q01DX001 (ip), vehicle: saline): 152 % of control
- T/C (endpoint: median survival time, dose: 6.0 mg/kg/injection, schedule: Q04DX003 (ip), vehicle: saline): 115 % of control
- T/C (endpoint: median survival time, dose: 8.0 mg/kg/injection, schedule: Q01DX009 (ip), vehicle: saline): 104 % of control
- T/C (endpoint: median survival time, dose: 8.0 mg/kg/injection, schedule: Q04DX003 (ip), vehicle: saline): 154 % of control
- T/C (endpoint: median survival time, dose: 8.0 mg/kg/injection, schedule: Q04DX003 (ip), vehicle: water): 182 % of control and 339 % of control
- T/C (endpoint: median survival time, dose: 8.4 mg/kg/injection, schedule: Q04DX003 (ip), vehicle: water): 103 % of control
- T/C (endpoint: median survival time, dose: 9.6 mg/kg/injection, schedule: Q01DX001 (ip), vehicle: saline): 113 % of control and 216 % of control
- T/C (endpoint: median survival time, dose: 14.0 mg/kg/injection, schedule: Q04DX003 (ip), vehicle: water): 78 % of control
- T/C (endpoint: median survival time, dose: 16.0 mg/kg/injection, schedule: Q01DX001 (ip), vehicle: water): 76 % of control
- T/C (endpoint: median survival time, dose: 16.0 mg/kg/injection, schedule: Q01DX001 (iv), vehicle: water): 193 % of control
- T/C (endpoint: median survival time, dose: 20.0 mg/kg/injection, schedule: Q01DX001 (ip), vehicle: saline): 71 % of control
- T/C (endpoint: median survival time, dose: 26.7 mg/kg/injection, schedule: Q01DX001 (ip), vehicle: saline): 99 % of control
- T/C (endpoint: median survival time, dose: 32.0 mg/kg/injection, schedule: Q01DX001 (iv), vehicle: water): 65 % of control
- T/C (endpoint: median survival time, dose: 40.0 mg/kg/injection, schedule: Q01DX001 (ip), vehicle: saline): 53 % of control
